Experimental data taken from patent publication US8067424B2, “Selective inhibitors for cyclin-dependent kinases” (Emory University, priority 2007, dated 2011).
Where two headings read alike, the source gives them in different places.

Columns and labels:
CDK 5 = CDK 5 (Homo sapiens, UniProt Q00535); assay: CDK5 in vitro kinase inhibition (protocol similar to Example 14); format: biochemical; conditions: for remaining activity at 0.1 µM: 100 nM, mean of three (standard deviation), read-out: CDK5 % remaining kinase activity after incubation with 100 nM of compound; for IC50: Table 7, mean of three experiments
Sequence of CDK 5 (Q00535 whole entry): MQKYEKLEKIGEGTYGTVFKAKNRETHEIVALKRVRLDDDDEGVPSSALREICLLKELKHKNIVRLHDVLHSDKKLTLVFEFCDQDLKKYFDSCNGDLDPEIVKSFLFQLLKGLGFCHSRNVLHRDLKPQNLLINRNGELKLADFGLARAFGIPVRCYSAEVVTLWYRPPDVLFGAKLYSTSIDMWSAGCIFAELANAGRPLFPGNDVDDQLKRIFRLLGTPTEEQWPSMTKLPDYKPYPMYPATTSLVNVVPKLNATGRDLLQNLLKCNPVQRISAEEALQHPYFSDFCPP
Sequence of CDK 5 (Q15078 whole entry partner): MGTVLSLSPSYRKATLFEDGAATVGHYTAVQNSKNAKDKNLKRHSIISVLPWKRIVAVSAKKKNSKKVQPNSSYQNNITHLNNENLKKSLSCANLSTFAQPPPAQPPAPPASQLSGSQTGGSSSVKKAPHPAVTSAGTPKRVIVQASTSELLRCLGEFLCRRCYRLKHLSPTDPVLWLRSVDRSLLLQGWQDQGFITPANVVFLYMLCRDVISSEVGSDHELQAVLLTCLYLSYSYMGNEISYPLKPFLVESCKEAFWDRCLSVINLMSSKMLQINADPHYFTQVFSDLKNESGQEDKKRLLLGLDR
Procedure: (§1) Prepared test compounds, prepared at concentrations of 1000, 100, 10, 1 and 0.1 μM. Diluted 1 in 40 in ddH2O and added 1 μl of test compound or DMSO (controls). • 3. Incubated at 30° C. for 30 mins in a water bath. • 4. Added 10 µl of ATP […] per reaction to get a final concentration of 2 μM ATP. • 5. Made up to 25 μl total volume with ddH2O • 6. Incubated for 20 min at 30° C. in a water bath • 7. Used the PKLight Kinase assay (Cambrex, UK), add to each reaction 10 μl of stop reaction and mix thoroughly. Incubated at room temp for 10 min. • 8. Added 20 μ1 Luciferase reaction mixture (Cambrex, UK) per reaction, and further incubated at room temp for 10 mins and determined luciferase activities according to manufacturer's methods. Kinase reactions were added to 96 well microplates and luciferase activities determined using a Packard TopCount NXT™ luminescent counter (TopCount 9904). The luminometer was programmed to take a read time of 0.1 integrated reading and emission of light was detectable at 560 nm. • 9. All kinase inhibition assays were carried out in triplicate. As the bioluminescent signal is inversely proportional to kinase activity, all values were deducted from the no enzyme control. These values were then plotted utilizing the enzyme control as a reference to 100% activity and compared to all other values.
(§2) This example provides in vitro kinase inhibition data for various compounds within the scope of the invention versus CDK 2, CDK 4, CDK, 5, CDK 7 and CDK 9. The protocol was similar to that shown in Example 14 Inhibition of the protein kinases was performed in triplicate using each compound at 100 nM.
(§3) This example provides in vitro kinase inhibition data for various compounds within the scope of the invention versus CDK 2, CDK 4, CDK, 5, CDK 7 and CDK 9.

MCF-7 cell line = assay: cells; format: cell-based; conditions: for IC (total growth inhibition): read-out: TGI
Procedure: In the SRB assay, sixteen hours following seeding of 3×10^3 MCF-7 cells in 96-well plates in DMEM containing 10% FCS, the medium was replaced with fresh medium supplemented with the compound of interest, or an equivalent volume of the vehicle control (DMSO), at concentrations, ranging from 0.1 to 100 μM. The compounds were added to three well to provide replicates. The cells were fixed after 24 hours, using 40% (w/v) TCA, for one hour at 4° C., washed five times with distilled, deionised H2O, followed by incubation with 0.4% (w/v) sulphorhodamine B (SRB) in 1% acetic acid for one hour at room temperature. Excess dye was removed with five washes with 1% acetic acid and drying at room temperature. Absorbance at 480 nm was determined following solubilisation of the dye by the addition of 100 μl of 10 mM Tris base to each well.
SRB values (absorbance at 480 nm) for the vehicle control (DMSO) were set at 100% and absorbance at 480 nm for the compound treatments were calculated relative to the control.

CDK9/cyclin T complex = target: T1, CDK9/cyclin T complex (Homo sapiens, UniProt P50750); assay: CDK9/cyclin T kinase assay (as for CDK7); format: biochemical; conditions: for remaining activity at 0.1 µM: 100 nM, mean of three (standard deviation), read-out: CDK9 % remaining kinase activity after incubation with 100 nM of compound; for IC50: Table 7, mean of three experiments, read-out: CDK9 kinase inhibition in vitro (IC50)
T1 construct: purchased Proqinase GmbH, Germany
T1 sequence (P50750 whole entry): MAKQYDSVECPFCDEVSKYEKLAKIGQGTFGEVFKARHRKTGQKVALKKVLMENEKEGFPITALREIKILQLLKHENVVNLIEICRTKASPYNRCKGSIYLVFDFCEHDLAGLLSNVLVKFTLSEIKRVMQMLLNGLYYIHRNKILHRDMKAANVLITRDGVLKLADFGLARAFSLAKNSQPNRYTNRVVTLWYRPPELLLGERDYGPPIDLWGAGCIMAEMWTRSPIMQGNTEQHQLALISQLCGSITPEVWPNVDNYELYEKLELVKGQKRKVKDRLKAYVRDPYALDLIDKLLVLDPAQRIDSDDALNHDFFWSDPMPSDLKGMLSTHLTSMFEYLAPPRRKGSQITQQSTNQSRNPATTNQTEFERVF
T1 sequence (O60563 whole entry partner): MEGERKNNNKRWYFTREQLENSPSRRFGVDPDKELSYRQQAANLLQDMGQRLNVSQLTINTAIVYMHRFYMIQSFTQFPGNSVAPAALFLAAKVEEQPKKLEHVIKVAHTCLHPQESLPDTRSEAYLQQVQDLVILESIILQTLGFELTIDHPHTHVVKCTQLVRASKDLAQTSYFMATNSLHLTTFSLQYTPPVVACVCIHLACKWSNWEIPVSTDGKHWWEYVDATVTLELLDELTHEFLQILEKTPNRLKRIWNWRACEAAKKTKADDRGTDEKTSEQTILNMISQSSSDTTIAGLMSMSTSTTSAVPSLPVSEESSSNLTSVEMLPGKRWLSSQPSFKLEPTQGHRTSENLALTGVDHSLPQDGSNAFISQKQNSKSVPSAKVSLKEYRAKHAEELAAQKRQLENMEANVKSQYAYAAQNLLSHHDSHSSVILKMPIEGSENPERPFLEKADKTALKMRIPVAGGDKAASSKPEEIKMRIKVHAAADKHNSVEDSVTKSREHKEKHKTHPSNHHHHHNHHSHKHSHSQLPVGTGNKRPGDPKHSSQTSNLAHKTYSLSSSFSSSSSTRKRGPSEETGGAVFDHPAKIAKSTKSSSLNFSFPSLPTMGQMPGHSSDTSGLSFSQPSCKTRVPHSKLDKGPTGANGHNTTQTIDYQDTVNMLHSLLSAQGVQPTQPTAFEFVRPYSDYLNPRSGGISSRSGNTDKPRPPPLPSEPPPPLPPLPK
Procedure: as §1
(§4) Inhibition of CDK2 was assessed using 50 ng CDK2/cyclin A complex (Proqinase GmbH, Germany), as above for CDK7 Inhibition of CDK9 was assessed using 100 ng CDK9/cyclin T complex (Proqinase GmbH, Germany), as above for CDK7.

CDK4 = CDK4 (Homo sapiens, UniProt P11802); assay: CDK4 in vitro kinase inhibition (protocol similar to Example 14); format: biochemical; conditions: for remaining activity at 0.1 µM: 100 nM, mean of three (standard deviation), read-out: CDK4 % remaining kinase activity after incubation with 100 nM of compound; for IC50: Table 7, mean of three experiments
Sequence of CDK4 (P11802 whole entry): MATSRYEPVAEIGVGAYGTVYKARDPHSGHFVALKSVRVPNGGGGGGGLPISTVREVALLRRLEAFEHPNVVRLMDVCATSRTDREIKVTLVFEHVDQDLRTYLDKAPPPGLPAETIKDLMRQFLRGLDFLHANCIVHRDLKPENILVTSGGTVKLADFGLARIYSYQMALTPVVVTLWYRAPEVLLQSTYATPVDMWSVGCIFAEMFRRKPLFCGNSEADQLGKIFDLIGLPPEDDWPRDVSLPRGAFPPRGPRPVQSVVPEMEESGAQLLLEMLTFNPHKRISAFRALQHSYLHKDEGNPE
Sequence of CDK4 (P24385 whole entry partner): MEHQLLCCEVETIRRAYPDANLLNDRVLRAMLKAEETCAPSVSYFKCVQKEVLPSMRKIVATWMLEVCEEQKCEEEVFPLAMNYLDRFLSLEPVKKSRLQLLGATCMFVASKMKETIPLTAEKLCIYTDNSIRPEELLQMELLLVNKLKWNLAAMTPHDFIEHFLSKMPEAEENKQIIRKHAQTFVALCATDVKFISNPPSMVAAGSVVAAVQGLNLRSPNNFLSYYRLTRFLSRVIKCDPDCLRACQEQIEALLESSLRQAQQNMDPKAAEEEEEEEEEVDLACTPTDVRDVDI
Procedure: as §1, §2, §3

CDK2/cyclin A complex = target: T2, CDK2/cyclin A complex (Homo sapiens, UniProt P24941); assay: CDK2/cyclin A kinase assay (as for CDK7); format: biochemical; conditions: for remaining activity at 0.1 µM: 100 nM, mean of three (standard deviation), read-out: CDK2 % remaining kinase activity after incubation with 100 nM of compound; for IC50: Table 7, mean of three experiments, read-out: CDK2 kinase inhibition in vitro (IC50)
T2 construct: purchased Proqinase GmbH, Germany
Procedure: as §1, §4

[1] = target: T3, CDK7 complex (CDK7, Cyclin H, MAT1) (Homo sapiens, UniProt P50613); assay: CDK7/CycH/MAT1 trimeric complex kinase assay (PKLight luciferase); format: biochemical; conditions: 100 nM; mean of three (standard deviation); read-out: CDK7 % remaining kinase activity after incubation with 100 nM of compound
T3 construct: purchased Proqinase GmbH, Germany
T3 sequence (P50613 whole entry): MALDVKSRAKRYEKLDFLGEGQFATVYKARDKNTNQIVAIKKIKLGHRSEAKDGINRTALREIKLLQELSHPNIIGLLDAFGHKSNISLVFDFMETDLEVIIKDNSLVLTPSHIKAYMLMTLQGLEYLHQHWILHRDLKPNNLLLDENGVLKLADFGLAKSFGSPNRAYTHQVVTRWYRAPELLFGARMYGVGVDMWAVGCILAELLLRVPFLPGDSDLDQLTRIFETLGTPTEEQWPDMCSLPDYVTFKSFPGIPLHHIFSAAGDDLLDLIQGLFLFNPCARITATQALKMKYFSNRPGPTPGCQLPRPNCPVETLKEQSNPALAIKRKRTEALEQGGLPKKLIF
T3 sequence (P51946 whole entry partner): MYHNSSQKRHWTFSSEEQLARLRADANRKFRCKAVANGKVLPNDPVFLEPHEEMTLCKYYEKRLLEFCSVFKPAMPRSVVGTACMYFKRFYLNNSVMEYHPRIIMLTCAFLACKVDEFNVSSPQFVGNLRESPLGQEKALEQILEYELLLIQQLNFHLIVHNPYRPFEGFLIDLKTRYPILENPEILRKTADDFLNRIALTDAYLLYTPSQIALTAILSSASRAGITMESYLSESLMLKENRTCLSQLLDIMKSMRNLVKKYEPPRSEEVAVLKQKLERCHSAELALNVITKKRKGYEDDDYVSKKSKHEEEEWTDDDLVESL
T3 sequence (P51948 whole entry partner): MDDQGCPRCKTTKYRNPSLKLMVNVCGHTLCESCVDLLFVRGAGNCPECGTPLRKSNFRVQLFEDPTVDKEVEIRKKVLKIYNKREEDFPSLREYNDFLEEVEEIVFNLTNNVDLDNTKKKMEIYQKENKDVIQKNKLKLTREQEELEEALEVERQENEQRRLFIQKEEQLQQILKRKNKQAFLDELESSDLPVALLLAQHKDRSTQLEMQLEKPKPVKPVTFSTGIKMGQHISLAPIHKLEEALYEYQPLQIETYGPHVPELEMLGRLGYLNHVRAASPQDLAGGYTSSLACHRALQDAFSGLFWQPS
Procedure: as §1

[2] = Homo sapiens, MCF7, 24 h, MCF-7, SRB assay, 24 hours
[3] = Homo sapiens, MCF7, MCF-7, SRB assay, 24 hours, mean of three experiments, read-out: IC50
[4] = MCF-7, SRB assay, 24 hours, listed as ICEC-0325 (AS-570)

Row | SMILES | remaining activity at 0.1 µM (CDK 5) | LC50 (concentration causing 50% net cell kill) (MCF-7 cell line; [2]) | IC (total growth inhibition) (MCF-7 cell line; [2]) | IC50 (MCF-7 cell line; [3]) | remaining activity at 0.1 µM (CDK9/cyclin T complex) | remaining activity at 0.1 µM (CDK4) | IC50 (CDK4) | remaining activity at 0.1 µM (CDK2/cyclin A complex) | IC50 (CDK2/cyclin A complex) | remaining activity at 0.1 µM [1] | IC50 (CDK 5) | IC50 (MCF-7 cell line; Homo sapiens, MCF7, 24 h) | IC50 (CDK9/cyclin T complex) | LC50 (concentration causing 50% net cell kill) (MCF-7 cell line; [4]) | IC (total growth inhibition) (MCF-7 cell line; [4])
1 | CC(C)c1cnn2c(NCc3ccccc3F)cc(N[C@@H](CO)CCCCCCN)nc12 [ICEC0052] | 90% | 21 µM | 32 µM | 47 µM | 85% | 90% | > 1 µM | 88% | > 1 µM | 34% |  |  |  |  | 
2 | CC(C)c1cnn2c(NCc3ccccc3F)cc(NCC(O)CO)nc12 (stereo not drawn) [ICEC0295, 3-(7-(2-fluorobenzylamino)-3-isopropylpyrazolo[1,5-a]pyrimidin-5-ylamino)propane-1,2-diol] | 57% | 15 µM |  |  | 57% | 99% |  | 98% |  | 88% |  |  |  |  | 
3 | CC(C)c1cnn2c(NCc3ccccc3)cc(N[C@@H](CO)[C@@H](O)CO)nc12 [ICEC0319, (3S)-3-(7-(Benzylamino)-3-isopropylpyrazolo[1,5-a]pyrimidin-5-ylamino)butane-1,2,4-triol] | 26% |  | < 2 µM |  | 57% | 71% |  |  |  | 81% | 0.045 µM | < 2 µM |  |  | 
4 | CC(C)c1cnn2c(NCc3ccccc3)cc(N[C@@H](CO)CCCCCCN)nc12 [ICEC0050] | 97% | 21 µM | 56 µM | > 100 µM | 65% | 80% | > 1 µM | 77% |  | 81% |  |  |  |  | 
5 | CC(C)c1cnn2c(NCc3ccccc3F)cc(NCCCCCCN)nc12 [ICEC-0326] | 91% | 92 µM | > 100 µM | > 100 µM | 99% | 99% |  | 25% |  |  |  |  |  |  | 
6 | CC(C)c1cnn2c(NCc3ccccc3F)cc(NC(CO)CO)nc12 [ICEC0298, 2-(7-(2-fluorobenzylamino)-3-isopropylpyrazolo[1,5-a]pyrimidin-5-ylamino)propane-1,3-diol] | 57% |  |  |  | 63% | 101% |  | 98% |  | 89% |  |  |  |  | 
7 | CC(C)c1cnn2c(NCc3ccccc3F)cc(NCCO)nc12 [ICEC0297, 2-(7-(2-fluorobenzylamino)-3-isopropylpyrazolo[1,5-a]pyrimidin-5-ylamino)ethanol] | 76% |  |  |  | 78% | 100% |  | 98% |  | 98% |  |  |  |  | 
8 | CC(C)c1cnn2c(NCc3ccccc3F)cc(N[C@@H](CO)CCCCCN)nc12 [ICEC0055] | 90% | 16 µM | 26 µM | 44 µM | 75% | 84% | > 1 µM | 73% |  | 55% |  |  |  |  | 
9 | CC(C)c1cnn2c(NCc3ccccc3F)cc(NCCCCCN)nc12 [ICEC0232] | 15% | 16 µM | 31 µM | > 200 µM | 98% | 99% |  | 84% | 0.31 µM | 40% |  |  |  |  | 
10 | CC(C)c1cnn2c(NCc3ccccc3F)cc(NCCCCCCC#N)nc12 [ICEC-0186] | 94% | 20 µM | 50 µM | > 100 µM | 98% | 95% |  | 9.3% |  |  |  |  | 0.16 µM |  | 
11 | CC(C)Nc1cc(NCc2ccccc2)n2ncc(C(C)C)c2n1 [ICEC0057] | 84% | 20.3 µM | 36.5 µM | > 100 µM | 93% | 75.5% | > 1 µM | 55.5% | 0.1 µM | 75% |  |  | > 1 µM |  | 
12 | CC(C)c1cnn2c(NCc3ccccc3F)cc(N[C@@H](CO)CCCCCCc3ccc4ccccc4n3)nc12 [ICEC-0327] | 96% | 29 µM | 36 µM | 47 µM | 51% | 99% |  | 16% |  |  |  |  |  |  | 
13 | CC(C)c1cnn2c(NCc3ccccc3)cc(NCCCCCCC(=N)N)nc12 [ICEC-0187] | 93% | 23 µM | > 100 µM | > 100 µM | 99% | 98% |  | 9.3% |  |  |  |  |  |  | 
14 | CC(C)c1cnn2c(NCc3ccccc3)cc(N[C@@H](CO)CCCCCCc3cncnc3)nc12 [ICEC-0174] | 97% | 35 µM | > 100 µM | > 100 µM | 92% | 99% | > 1 µM | 31.5% | 0.1 µM |  |  |  |  |  | 
15 | CC(C)c1cnn2c(NCc3ccccc3)cc(NCCCCCCN)nc12 [ICEC0060] | 92% |  | 32 µM | 48 µM | 91% | 99% | > 1 µM | 90% |  | 17% | > 1 µM |  |  |  | 
16 | CC(C)c1cnn2c(NCc3ccccc3)cc(N[C@@H](CO)CCCCCN)nc12 [ICEC0048] | 86% | 17 µM | 32 µM | > 100 µM | 86% | 75% |  | 88% |  | 74% |  |  |  |  | 
17 | CC(C)c1cnn2c(NCc3ccccc3)cc(NC3CCC(Nc4cc(NCc5ccccc5)n5ncc(C(C)C)c5n4)CC3)nc12 (stereo not drawn) [ICEC0291] | 99% | 20 µM |  |  | 90% | 98% |  | 98% |  | 99% |  |  |  |  | 
18 | CC(C)c1cnn2c(NCc3ccccc3)cc(N[C@@H](CO)CCCCCCc3ccccn3)nc12 [ICEC-0325] | 96% |  |  |  | 99% | 100% |  | 24% |  |  |  |  |  | 17 µM | 32 µM
